US10106534B2 (CELGENE QUANTICEL RESEARCH, INC., priority 2014, dated 2018)
Counter-ions that a name gives are not always drawn.

Tests used:
[1] = test system: KYSE-150 esophageal carcinoma cell line; experiment: In vitro cell-based assay: cellular proliferation via BrdU incorporation (ELISA); parameters: species or system human; conditions: Homo sapiens, KYSE-150, 168 hours compound incubation
Description: The primary cellular assay for JMJD2C inhibition is an assay which measures cellular proliferation via Bromodeoxyuridine (BrdU) incorporation after 168 hours of compound incubation. Cell lines tested include the JMJD2C gene amplified cell line KYSE-150. This is a quantitative ELISA assay measuring DNA incorporation of BrdU during S-phase as a direct readout of cellular proliferation.
Assay Principle: This is a colorimetric immunoassay for the quantification of cell proliferation. Cells treated for 168 hours with test compounds are assayed for their ability to go through S-phase as a measure of their proliferative potential.
Assay Method: The human KYSE-150 (SMAD4 mut, TP53 mut) esophageal carcinoma cell line was seeded at 2,000 cells/well on a 96-well tissue culture treated plate. After an overnight incubation, cells were treated with compound in an 11-point dilution series with final concentrations ranging from 100 μM to 2 nM. Cells were then incubated in the presence of compound for 168 hours. After compound incubation the cells were assayed using a BrdU Cell Proliferation ELISA (Roche). The cells were first incubated with BrdU labeling reagent for 2 hours. After 2 hours, the BrdU incorporated cells were fixed and denatured, probed with an anti-BrdU-Peroxidase antibody for 1.5 hours and washed. Finally, a tetramethylbenzidine peroxidase substrate was added to each well for 15 minutes followed by a H2SO4 stop solution. The plate was read at 450 nm, and the raw optical density data was transferred into XLFit (IDBS) for IC50 calculation using the formula: fit=(D+((Vmax*(x^n))/((x^n)+(Km^n))))

JMJD2C = JMJD2C (Homo sapiens (Human), UniProt Q9H3R0); experiment: In vitro enzyme inhibition assay for JMJD2C activity (TR-FRET); format: biochemical
Procedure, shortened: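 Demethylation product H3K9me2 quantified by TR-FRET ratio 665/615 after EDTA stop and 1 h with Eu-anti-H3K9me2 and streptavidin-APC; IC50 by curve fit. Reaction: 0.3 nM JMJD2C (AA 2-372, baculovirus), 2 μM α-ketoglutarate, 300 nM biotin-H3K9me3 peptide, pH 7.3 HEPES with Fe(II)/ascorbate, 30 min room temperature.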

Sequence of JMJD2C (Q9H3R0 2-372): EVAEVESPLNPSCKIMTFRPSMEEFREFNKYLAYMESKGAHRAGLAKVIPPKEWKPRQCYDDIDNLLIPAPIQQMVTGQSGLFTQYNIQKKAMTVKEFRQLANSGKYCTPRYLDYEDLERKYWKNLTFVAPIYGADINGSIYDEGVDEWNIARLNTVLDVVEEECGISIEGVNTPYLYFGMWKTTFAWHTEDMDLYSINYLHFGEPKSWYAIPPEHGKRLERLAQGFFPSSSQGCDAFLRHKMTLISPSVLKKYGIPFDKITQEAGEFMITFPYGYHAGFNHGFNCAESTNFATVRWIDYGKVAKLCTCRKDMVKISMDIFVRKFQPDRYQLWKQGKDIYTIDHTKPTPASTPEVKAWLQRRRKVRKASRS

Compound	IC50 [1] [nM]	IC50 (JMJD2C) [nM]
Cc1cccc(Oc2ccc3c(c2)CCCC3CNc2cnccc2C(=O)O)n1 (stereo not drawn) [Example 56, 3-[({6-[(6-methylpyridin-2-yl)oxy]-1,2,3,4-tetrahydronaphthalen-1-yl}methyl)amino]pyridine-4-carboxylic acid]	1000 to 10000	100 to 1000
CCCOc1ccc2c(c1)CCCC2CNc1cnccc1C(=O)O (stereo not drawn) [Example 59, 3-{[(6-propoxy-1,2,3,4-tetrahydronaphthalen-1-yl)methyl]amino}pyridine-4-carboxylic acid]	1000 to 10000	100 to 1000
O=C(O)c1ccncc1NC[C@@H]1CCCc2cc(OC(F)F)ccc21 [Example 61, 3-({[(1R)-6-(difluoromethoxy)-1,2,3,4-tetrahydronaphthalen-1-yl]methyl}amino)pyridine-4-carboxylic acid]	1000 to 10000	100 to 1000
O=C(O)c1ccncc1NCC1CCCc2cc(OCC3CCOCC3)ccc21 (stereo not drawn) [Example 63, 3-({[6-(oxan-4-ylmethoxy)-1,2,3,4-tetrahydronaphthalen-1-yl]methyl}amino)pyridine-4-carboxylic acid]	> 10000	100 to 1000
O=C(O)c1ccncc1NC[C@@H]1CCCc2cc(Sc3ccccc3F)ccc21 [Example 73, 3-({[(1R)-6-[(2-fluorophenyl)sulfanyl]-1,2,3,4-tetrahydronaphthalen-1-yl]methyl}amino)pyridine-4-carboxylic acid]	100 to 1000	100 to 1000
O=C(O)c1ccncc1NCC1CCCc2cc(Sc3ccccn3)ccc21 (stereo not drawn) [Example 80, 3-({[6-(pyridin-2-ylsulfanyl)-1,2,3,4-tetrahydronaphthalen-1-yl]methyl}amino)pyridine-4-carboxylic acid]	1000 to 10000	100 to 1000
O=C(O)c1ccncc1NC[C@@H]1CCCc2cc(S(=O)(=O)c3ccccc3)ccc21 [Example 82, 3-({[(1R)-6-(benzenesulfonyl)-1,2,3,4-tetrahydronaphthalen-1-yl]methyl}amino)pyridine-4-carboxylic acid]	> 10000	100 to 1000
Cc1ccc(S(=O)(=O)c2ccc3c(c2)CCC[C@H]3CNc2cnccc2C(=O)O)cc1 [Example 84, 3-({[(1R)-6-(4-methylbenzenesulfonyl)-1,2,3,4-tetrahydronaphthalen-1-yl]methyl}amino)pyridine-4-carboxylic acid]	> 10000	100 to 1000
Cc1cccc(S(=O)(=O)c2ccc3c(c2)CCC[C@H]3CNc2cnccc2C(=O)O)c1 [Example 86, 3-({[(1R)-6-(3-methylbenzenesulfonyl)-1,2,3,4-tetrahydronaphthalen-1-yl]methyl}amino)pyridine-4-carboxylic acid]	> 10000	100 to 1000
O=C(O)c1ccncc1NCC1CCCc2cc(C3CCOCC3)ccc21 (stereo not drawn) [Example 88, 3-({[6-(oxan-4-yl)-1,2,3,4-tetrahydronaphthalen-1-yl]methyl}amino)pyridine-4-carboxylic acid]	> 10000	100 to 1000
Cc1cc(-c2ccc3c(c2)CCCC3CNc2cnccc2C(=O)O)ccn1 (stereo not drawn) [Example 89, 3-({[6-(2-methylpyridin-4-yl)-1,2,3,4-tetrahydronaphthalen-1-yl]methyl}amino)pyridine-4-carboxylic acid, hydrochloride]	> 10000	100 to 1000
CCc1ccc2c(c1)CCC[C@H]2CNc1cnccc1C(=O)O [Example 91, 3-({[(1R)-6-ethyl-1,2,3,4-tetrahydronaphthalen-1-yl]methyl}amino)pyridine-4-carboxylic acid]	1000 to 10000	100 to 1000
O=C(O)c1ccncc1NCC1CCCc2c1ccc1c2OCC1 (stereo not drawn) [Example 92, 3-({2H,3H,6H,7H,8H,9H-naphtho[1,2-b]furan-6-ylmethyl}amino)pyridine-4-carboxylic acid]	1000 to 10000	100 to 1000
Cc1cc2c(cc1C)C(CNc1cnccc1C(=O)O)CCO2 (stereo not drawn) [Example 93, 3-{[(6,7-dimethyl-3,4-dihydro-2H-1-benzopyran-4-yl)methyl]amino}pyridine-4-carboxylic acid]	1000 to 10000	100 to 1000
COc1cc2c(cc1C)C(CNc1cnccc1C(=O)O)CCC2 (stereo not drawn) [Example 94, 3-{[(6-methoxy-7-methyl-1,2,3,4-tetrahydronaphthalen-1-yl)methyl]amino}pyridine-4-carboxylic acid]	100 to 1000	100 to 1000
COc1cc2c(c(OC)c1)C(CNc1cnccc1C(=O)O)CCC2 (stereo not drawn) [Example 95, 3-{[(6,8-dimethoxy-1,2,3,4-tetrahydronaphthalen-1-yl)methyl]amino}pyridine-4-carboxylic acid]	> 10000	100 to 1000
COc1cc2c(cc1F)[C@H](CNc1cnccc1C(=O)O)CCC2 [Example 97, 3-({[(1R)-7-fluoro-6-methoxy-1,2,3,4-tetrahydronaphthalen-1-yl]methyl}amino)pyridine-4-carboxylic acid]	1000 to 10000	100 to 1000
COc1ccc(F)cc1-c1ccc2c(c1)OCC[C@H]2CNc1cnccc1C(=O)O [Example 102, 3-({[(4R)-7-(5-fluoro-2-methoxyphenyl)-3,4-dihydro-2H-1-benzopyran-4-yl]methyl}amino)pyridine-4-carboxylic acid]	100 to 1000	100 to 1000
CN(c1ccc(C#N)cc1)c1ccc2c(c1)CCC[C@H]2CNc1cnccc1C(=O)O [Example 103, 3-({[(1R)-6-[(4-cyanophenyl)(methyl)amino]-1,2,3,4-tetrahydronaphthalen-1-yl]methyl}amino)pyridine-4-carboxylic acid]	100 to 1000	100 to 1000
CN(c1ccc2c(c1)OCC[C@H]2CNc1cnccc1C(=O)O)c1ccc(F)cc1F [Example 104, 3-({[(4R)-7-[(2,4-difluorophenyl)(methyl)amino]-3,4-dihydro-2H-1-benzopyran-4-yl]methyl}amino)pyridine-4-carboxylic acid]	100 to 1000	100 to 1000

More lines, now with the values ahead:

IC50 [1] [nM]	IC50 (JMJD2C) [nM]	Compound
100 to 1000	100 to 1000	O=C(O)c1ccncc1NC[C@@H]1CCOc2cc(Sc3cccc(F)c3)ccc21 [Example 53, 3-({[(4R)-7-[(3-fluorophenyl)sulfanyl]-3,4-dihydro-2H-1-benzopyran-4-yl]methyl}amino)pyridine-4-carboxylic acid]
≤ 100	100 to 1000	Cc1ccccc1Oc1ccc2c(c1)CCC[C@H]2CNc1cnccc1C(=O)O [Example 58, 3-({[(1R)-6-(2-methylphenoxy)-1,2,3,4-tetrahydronaphthalen-1-yl]methyl}amino)pyridine-4-carboxylic acid]
≤ 100	100 to 1000	Cc1cc(F)ccc1Oc1ccc2c(c1)CCC[C@H]2CNc1cnccc1C(=O)O [Example 64, 3-({[(1R)-6-(4-fluoro-2-methylphenoxy)-1,2,3,4-tetrahydronaphthalen-1-yl]methyl}amino)pyridine-4-carboxylic acid]
100 to 1000	100 to 1000	O=C(O)c1ccncc1NC[C@@H]1CCCc2cc(Oc3ccc(F)cc3F)ccc21 [Example 65, 3-({[(1R)-6-(2,4-difluorophenoxy)-1,2,3,4-tetrahydronaphthalen-1-yl]methyl}amino)pyridine-4-carboxylic acid]
100 to 1000	100 to 1000	O=C(O)c1ccncc1NC[C@@H]1CCCc2cc(Oc3ccccc3Cl)ccc21 [Example 67, 3-({[(1R)-6-(2-chlorophenoxy)-1,2,3,4-tetrahydronaphthalen-1-yl]methyl}amino)pyridine-4-carboxylic acid]
100 to 1000	1000 to 10000	Cc1cccc(Sc2ccc3c(c2)CCC[C@H]3CNc2cnccc2C(=O)O)c1 [Example 69, 3-({[(1R)-6-[(3-methylphenyl)sulfanyl]-1,2,3,4-tetrahydronaphthalen-1-yl]methyl}amino)pyridine-4-carboxylic acid]
100 to 1000	1000 to 10000	Cc1ccccc1Sc1ccc2c(c1)CCC[C@H]2CNc1cnccc1C(=O)O [Example 71, 3-({[(1R)-6-[(2-methylphenyl)sulfanyl]-1,2,3,4-tetrahydronaphthalen-1-yl]methyl}amino)pyridine-4-carboxylic acid]
≤ 100	100 to 1000	O=C(O)c1ccncc1NC[C@@H]1CCCc2cc(Sc3ccc(F)cc3)ccc21 [Example 77, 3-({[(1R)-6-[(4-fluorophenyl)sulfanyl]-1,2,3,4-tetrahydronaphthalen-1-yl]methyl}amino)pyridine-4-carboxylic acid]
≤ 100	1000 to 10000	Cc1ccc(Sc2ccc3c(c2)CCC[C@H]3CNc2cnccc2C(=O)O)cc1 [Example 79, 3-({[(1R)-6-[(4-methylphenyl)sulfanyl]-1,2,3,4-tetrahydronaphthalen-1-yl]methyl}amino)pyridine-4-carboxylic acid]
≤ 100	100 to 1000	Cc1ccccc1-c1ccc2c(c1)OCC[C@H]2CNc1cnccc1C(=O)O [Example 101, 3-({[(4R)-7-(2-methylphenyl)-3,4-dihydro-2H-1-benzopyran-4-yl]methyl}amino)pyridine-4-carboxylic acid]
